Patent US20230193038A1, “METHODS OF DIGITAL PRINTING USING MODIFIED INDIGO COMPOUNDS” (VP Jeanswear LP, priority 2017, published 2023)

Assay: Conversion of the modified indigo compound to indigo under hydrolyzing conditions
Format: physicochemical
Protocol: The hydrolysis is performed using any chemical compound or condition that is capable of converting the dye compound to indigo. In some embodiments, the hydrolysis is performed in aqueous compositions which contain a hydrolyzing agent. In other embodiments, the hydrolyzing agent may be selected by one skilled in the art and may include, without limitation, a base, heat, steam, or a combination thereof.

hydrolysis to indigo: hydrolyzes to indigo
Structure (SMILES): O=C1/C(=C2/C(=O)c3ccccc3N2C(=O)c2ccncc2)N(C(=O)c2ccncc2)c2ccccc21 [Compound 37]
